Values after ≈ are worked out from the molar mass of the structure shown.
Legend:
Mtb [1] = experiment: Growth inhibition; type: cell-based, Mycobacterium tuberculosis
Mtb [2] = experiment: Combination with isoniazid, Mtb growth; type: cell-based, Mycobacterium tuberculosis; conditions: 250 nm, in the absence of TQZ
[3] = tested on: ATP production through oxidative phosphorylation in membrane vesicles derived from mycobacteria; experiment: NADH-initiated ATP synthesis in mycobacterial membrane vesicles; type: biochemical; conditions: read-out: IC50, inhibition of ATP synthesis, NADH added
Mtb [4] = conditions: cited from earlier work
[5] = tested on: NADH oxidation in purified membranes; conditions: cited from earlier work

SMILES: O=C(CSc1nc2cccc(F)c2c(=O)[nH]1)NC1CCCCC1 [CBR-3465]
- MIC (Mtb [1]): 0.16 µM (≈ 0.0537 µg/mL)

SMILES: NNC(=O)c1ccncc1 [INH, isoniazid]
- effect on Mtb replication (Mtb [2]): completely prevents replication

SMILES: COc1nc2ccc(Br)cc2cc1[C@@H](c1ccccc1)[C@@](O)(CCN(C)C)c1cccc2ccccc12 [bedaquiline]
- IC50 [3]: 6.9 nM

SMILES: C=C(C)[C@H]1Cc2c(ccc3c2O[C@@H]2COc4cc(OC)c(OC)cc4[C@@H]2C3=O)O1 [rotenone]
- effect on mycobacterial growth (Mtb [4]): little effect
- effect on NADH oxidation [5]: little effect
